Data as given in EP0358957A1, “Fused tetrahydropyridineacetic acid derivatives, process for their preparation, and use of such compounds for the cardioprotection” (BOEHRINGER INGELHEIM KG, priority 1988, dated 1990).

test system: isolierten Rattenherzen; assay: Isolated rat heart, method II: coronary flow throttled by 75 %, prevention of the fall in contraction amplitude; set-up: species or system Ratten; conditions: Method II: coronary flow reduced by 75 %; substance added to perfusion medium during flow reduction; concentration needed to prevent the fall in contraction amplitude; read-out: Benötige Konzentrationen
Excerpt: Wird ein, längere Zeit unter ischämischen Bedingungen gehaltenes, isoliertes Herz wieder normal perfundiert, so tritt keine sofortige Normalisierung der Herzfunktion ein. Es findet sich vielmehr eine vorübergehende Periode, die durch Kontraktur und Arrhytmien gekennzeichnet ist. Diese Arrhythmiephase ist durch Veränderungen von Funktion und Struktur der Myocardzelle mit intrazellulärer Calciumüberladung bedingt (Hess u. Manson, J. Mol. Cell. Cardiol. 16, 969, 1984). Cardioprotektiv wirksame Verbindungen wie Verapamil und Diltiazem verringern die Calciumüberladung und verbessern das Kontraktionsverhalten bei Reperfusion (Watts et al, Am. J. Physiol. 238, H 909, 1980; Meno et al, Am. J. Physiol. 247, H 380, 1984), Die cardioprotektive Wirkung wird an isolierten Rattenherzen unter Ischämie und anschließender Reperfusion untersucht.
Wird der Coronarfluß isolierter Herzen um 75 % gedrosselt, so reagiert das Herz zunächst mit einer Abnahme der Kontraktionsamplitude, ein Herzstillstand tritt erst innerhalb einer Stunde ein. Cardioprotektive Substanzen, während der Periode der Flußreduzierung dem Perfusionsmedium zugesetzt, verhindern den Abfall der Kontraktionsamplitude.

| SMILES | minimal effective concentration |
| --- | --- |
| C=CCN(C1=NCCN1)c1c(Cl)cccc1Cl [Alinidin, reference compound] | 8.3 µg/mL |
| COc1cc2c(cc1OC)C(C(CCc1ccccc1)C(=O)NCCc1ccncc1)NCC2 (stereo not drawn) [D] | 3 µg/mL |
| CCCCNC(=O)C(CCc1ccccc1)C1NCCc2cc(OC)c(OC)cc21 (stereo not drawn) [E] | 1 µg/mL |
